Measurements from publication PMC7614687, “Modulation of the substrate specificity of the kinase PDK1 by distinct conformations of the full-length protein*” (Science signaling, 2023).

Tests used:
PDK1 [1] = target: T1, PDK1 (Homo sapiens, UniProt O15530); experiment: PDK1 activity assay with T308tide and [γ32P]ATP; assay type: biochemical; conditions: isolated catalytic domain
T1 construct: made in house; host or cells: HEK293 (GST fusion) or Sf9 insect cells (His form)
T1 sequence (O15530 1-359): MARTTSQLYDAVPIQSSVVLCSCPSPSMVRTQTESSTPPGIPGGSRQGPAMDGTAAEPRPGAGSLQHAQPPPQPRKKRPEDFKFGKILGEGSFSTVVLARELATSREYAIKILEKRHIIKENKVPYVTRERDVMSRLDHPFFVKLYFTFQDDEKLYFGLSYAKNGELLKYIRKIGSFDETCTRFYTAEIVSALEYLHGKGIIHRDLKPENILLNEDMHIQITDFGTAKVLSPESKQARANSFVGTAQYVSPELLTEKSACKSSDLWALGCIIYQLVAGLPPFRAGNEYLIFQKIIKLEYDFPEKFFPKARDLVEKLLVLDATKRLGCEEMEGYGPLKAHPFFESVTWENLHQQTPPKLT
Experimental: The PDK1 activity assay using T308tide as a substrate was performed essentially as previously described ([18], [28], [54]). In brief, the assay was performed in a 20 μl format containing 50 mM Tris pH 7.5, 0.05 mg/ml BSA, 0.1% ß-mercaptoethanol, 10 mM MgCl2, 100 μM [γ^32P]ATP (5-50 cpm/pmol), 0.003% Brij, 150-500 ng PDK1, and T308tide (0.3 mM) at room temperature. The assay was performed in 96 well plated and stopped by the addition of 5 μl of 0.1 % phosphoric acid. 4 μl aliquots were spotted on p81 phosphocellulose papers (Whatmann) using ep motion 5070 (Eppendorf). The phosphocellulose papers were washed in 0.01% phosphoric acid, dried, and exposed using PhosphoImager (FLA-9000 Starion). Data were analyzed with ImageQuant software (Fujifilm). Activity measurements were performed in technical duplicates or triplicates with less than 10% difference between replicates. Experiments were repeated at least twice. The activity measurements of PDK1 towards GS-022 and GS-023 were performed similarly, with the GS-peptides replacing T308tide at the indicated concentrations. GS-022 and GS-023 have features consistent with the loose characteristics disclosed for the peptide Ser/Thr 07, ((R/K)1-3(X)0-2 (S/T) (X)0-2(R/K)1-3, where X is any residue) used by the commercial “PDK1 Direct” assay.

GST-PDK1_1-556 = target: T2, GST-PDK1_1-556 (Homo sapiens, UniProt O15530); experiment: AlphaScreen GST-PDK1_1-556 / biotin-PIFtide interaction; assay type: binding
T2 construct: made in house; host or cells: HEK293 cells (transient transfection of pEBG2T); peptide synthesized by Pepscan
T2 sequence (O15530 1-556): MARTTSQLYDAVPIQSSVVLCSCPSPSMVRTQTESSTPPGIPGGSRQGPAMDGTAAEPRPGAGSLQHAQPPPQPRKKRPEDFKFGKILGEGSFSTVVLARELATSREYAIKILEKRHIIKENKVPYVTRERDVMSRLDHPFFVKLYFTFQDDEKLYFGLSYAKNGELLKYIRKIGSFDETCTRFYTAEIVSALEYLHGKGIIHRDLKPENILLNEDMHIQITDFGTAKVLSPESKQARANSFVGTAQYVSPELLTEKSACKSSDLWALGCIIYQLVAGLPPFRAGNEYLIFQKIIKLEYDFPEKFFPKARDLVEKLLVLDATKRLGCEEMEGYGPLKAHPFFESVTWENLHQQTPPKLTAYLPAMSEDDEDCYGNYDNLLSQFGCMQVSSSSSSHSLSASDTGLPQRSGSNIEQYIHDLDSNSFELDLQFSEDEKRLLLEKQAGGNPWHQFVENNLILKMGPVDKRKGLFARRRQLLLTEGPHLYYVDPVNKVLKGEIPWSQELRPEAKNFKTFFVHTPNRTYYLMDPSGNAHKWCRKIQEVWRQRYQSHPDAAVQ
Experimental: (§1) The AlphaScreen® assay was performed following the general guidelines from the manufacturer (Perkin Elmer) ([29]). In short, the assay was performed in a final volume of 25 μl in white 384-well microtiter plates (Greiner) in a standard buffer containing 50 mM Tris-HCl (pH 7.4), 100 mM NaCl, 2 mM DTT, 0.01% (v/v) Tween-20 and 0.1% (w/v) BSA, with the addition of 5 μl of beads (anti-GST coated acceptor beads and streptavidin-coated donor beads; nickel chelate-coated acceptor beads and streptavidin-coated donor beads; or nickel chelate-coated acceptor beads and GSH-coated donor beads, 20 μg/ml final concentrations for each bead type). AlphaScreen assays for His-tagged proteins and GST-fusion proteins were performed using nickel chelate-coated acceptor beads and GSH-coated donor beads; alphascreen assays for His-tagged proteins and biotinylated molecules were performed using nickel chelate-coated acceptor beads and streptavidin-coated donor beads; alphascreen assays for GST-fusion proteins and biotinylated molecules were performed using anti-GST coated acceptor beads and streptavidin-coated donor beads (Perkin Elmer).
The interaction between GST-PDK1_1-556 and biotin-PIFtide was performed as described previously ([29], [32]) in the standard buffer, but the bead concentration was lowered to 15 μg/ml.

[2] = target: T3, His-PDK1_1-556 and GST-PDK1_360-556 (Homo sapiens, UniProt O15530); experiment: AlphaScreen PDK1 dimerization assay His-PDK1_1-556 / GST-PDK1_360-556; assay type: binding; conditions: Prestwick library screen hits; read-out: IC50, inhibition of PDK1 dimerization
T3 construct: made in house; host or cells: Sf9 insect cells (His-PDK1_1-556); HEK293 cells (GST-PDK1_360-556)
T3 sequence (O15530 1-556): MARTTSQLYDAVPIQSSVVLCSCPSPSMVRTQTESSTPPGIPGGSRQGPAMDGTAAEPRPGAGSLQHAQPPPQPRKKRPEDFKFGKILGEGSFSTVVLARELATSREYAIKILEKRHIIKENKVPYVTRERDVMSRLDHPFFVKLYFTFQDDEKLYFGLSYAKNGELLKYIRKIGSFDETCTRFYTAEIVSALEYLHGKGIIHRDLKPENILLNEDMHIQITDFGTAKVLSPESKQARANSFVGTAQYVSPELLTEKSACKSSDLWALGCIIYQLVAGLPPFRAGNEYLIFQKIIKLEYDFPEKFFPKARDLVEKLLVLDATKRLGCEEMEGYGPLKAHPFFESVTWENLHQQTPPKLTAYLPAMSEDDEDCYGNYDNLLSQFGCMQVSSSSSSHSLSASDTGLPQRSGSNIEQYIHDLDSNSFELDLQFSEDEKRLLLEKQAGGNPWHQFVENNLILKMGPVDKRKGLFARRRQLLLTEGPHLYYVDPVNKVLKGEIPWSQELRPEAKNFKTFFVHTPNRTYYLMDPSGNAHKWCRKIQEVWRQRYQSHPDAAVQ
Experimental: as §1
The conditions for each AlphaScreen assay were identified in cross-titration experiments for each interaction to choose the ideal pair of concentrations within the linear range of the interactions. […] His-PDK1 and GST-fusion protein in the presence or absence of the different compounds were incubated in the dark for 60 min at room temperature and the emission of light from the acceptor beads was measured in an EnVision reader (Perkin Elmer) or Spark plate reader (Tecan). […]

PDK1_1-556 = target: T4, PDK1_1-556 (Homo sapiens, UniProt O15530); experiment: Differential scanning fluorimetry, thermal stability of PDK1_1-556; assay type: binding
T4 construct: effect of HYG8 on the thermal stability (ΔTm) of PDK1_1-556 (H) and PDK1_50-359 (I); His (N); made in house; host or cells: Sf9 insect cells (baculovirus)
T4 sequence (O15530 1-556): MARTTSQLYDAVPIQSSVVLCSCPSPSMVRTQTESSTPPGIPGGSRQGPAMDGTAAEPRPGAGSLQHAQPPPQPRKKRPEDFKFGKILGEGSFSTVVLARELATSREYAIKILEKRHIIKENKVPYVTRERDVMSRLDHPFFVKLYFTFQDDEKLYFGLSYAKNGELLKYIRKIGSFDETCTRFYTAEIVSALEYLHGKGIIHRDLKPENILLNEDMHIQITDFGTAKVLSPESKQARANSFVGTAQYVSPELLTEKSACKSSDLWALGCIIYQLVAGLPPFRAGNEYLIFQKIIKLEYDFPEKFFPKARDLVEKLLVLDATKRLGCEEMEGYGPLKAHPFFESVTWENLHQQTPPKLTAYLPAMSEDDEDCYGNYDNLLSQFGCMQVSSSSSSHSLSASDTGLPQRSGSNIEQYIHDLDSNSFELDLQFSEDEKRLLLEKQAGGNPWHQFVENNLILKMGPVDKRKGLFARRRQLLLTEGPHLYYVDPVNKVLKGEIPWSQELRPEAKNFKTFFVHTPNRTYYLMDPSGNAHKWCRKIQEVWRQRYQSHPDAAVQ
Experimental: (§2) The thermal stability of PDK1 was assessed by monitoring the unfolding of PDK1 by the increase in the fluorescence of SYPRO Orange (Invitrogen) using a real-time PCR device (StepOnePlus, Applied Biosystems and BioRad CFX96) following a previously described protocol ([70]). The reactions were performed in a final volume of 10 μl in white 96-well PCR microtiter plates (Greiner) and contained 1 μM PDK1, 10 mM HEPES (pH 7.5), 150 mM NaCl, 1/1000 SYPRO Orange and 1 mM dithiothreitol. For valsartan, the assay buffer was modified to exclude NaCl. PIFtide or compounds (at a final DMSO concentration of 1%) were added to this reaction mixture. The temperature gradient was performed in steps of 0.3 °C in the range from 25 to 70 °C. To calculate the Tm values, data were exported to GraphPad Prism and curves fitted to a Boltzmann sigmoidal equation with an acceptable confidence interval of 95%. Statistical analysis was performed with Infostat software (http://www.infostat.com.ar) and GraphPad Prism by first verifying a normal distribution of pooled residuals (Shapiro-Wilks test) and homogeneity of variance (F test), and then performing a one-way ANOVA followed by the post hoc comparisons test indicated in each figure legend.

PDK1_50-359 = target: T5, PDK1_50-359 (Homo sapiens, UniProt O15530); experiment: Differential scanning fluorimetry, thermal stability of PDK1_50-359 (catalytic domain); assay type: binding
T5 construct: His (N); made in house; host or cells: insect cells (stated for the crystallography batch)
T5 sequence (O15530 50-359): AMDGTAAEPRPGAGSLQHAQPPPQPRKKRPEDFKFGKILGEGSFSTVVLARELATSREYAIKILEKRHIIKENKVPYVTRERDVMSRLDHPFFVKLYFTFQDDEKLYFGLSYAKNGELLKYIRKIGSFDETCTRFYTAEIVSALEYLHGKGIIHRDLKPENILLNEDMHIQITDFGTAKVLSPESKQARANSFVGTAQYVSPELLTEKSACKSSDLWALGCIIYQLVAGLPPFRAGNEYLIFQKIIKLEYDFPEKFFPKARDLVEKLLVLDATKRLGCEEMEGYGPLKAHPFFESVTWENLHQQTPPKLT
Experimental: as §2

PDK1 [3] = system: PDK1; design: method as in PMID 20051961; conditions: read-out: IC50, in vitro inhibitor of PDK1; cited from earlier work

SMILES | effect on activity of the isolated catalytic domain of PDK1 toward T308tide (PDK1 [1]) | effect on PDK1-PIFtide interaction (GST-PDK1_1-556) | IC50 [2] [µM] | ΔTm at 50 µM (PDK1_1-556; 50 μM, buffer without NaCl) [°C] | effect on temperature stability of the PDK1-HYG8 complex (PDK1_1-556; in presence of HYG8) | effect on thermal stability of PDK1_50-359 (catalytic domain) (PDK1_50-359) | IC50 (PDK1 [3]) [µM]
CCCCC(=O)N(Cc1ccc(-c2ccccc2-c2nnn[nH]2)cc1)[C@H](C(=O)O)C(C)C [valsartan, reference compound] | modestly increased | inhibited | 32 | 2.2 | did not further enhance | less stabilization | –
O=P(O)(O)OC1C(OCc2ccccc2)C(OP(=O)(O)O)C(OP(=O)(O)O)C(OP(=O)(O)O)C1OP(=O)(O)O (stereo not shown) [2-O-benzyl-IP5] | – | – | – | – | – | – | 0.026
